According to patent US20150275313A1, “MARKER FOR DIAGNOSIS OF BLADDER CANCER RECURRENCE” (Dong-A University Research Foundation For Industry-Academy …, priority 2014, published 2015):

Legend:
Assay type in all cases: cell-based
[1] = tested on: FANCB, FANCC, and FANCD2 genes; assay: Expression of DNA repair genes in bladder cancer cell lines treated with doxorubicin; conditions: non-muscle invasive cell lines (UC5, UC9) and invasive cell lines (5637, EJ); doxorubicin 0 to 50 μM for 12 hours or 24 hours; FIG. 9C
Method: (§1) Further, the inventors of the present disclosure studied expression of FOXM1, CCNB1 genes, and FANCB, FANCC, and FANCD2 genes relevant to Fanconi anemia pathways after non-muscle invasive cell lines (UC5, UC9) and invasive cell lines (5637, EJ) were treated with doxorubicin used as an anticancer drug for bladder cancer at a concentration of 0 to 50 μM for 12 hours or 24 hours.
Furthermore, in the non-muscle invasive cell lines (UC5, UC9) and invasive cell lines (5637, EJ) treated as described above, expression of the genes relevant to DNA repair was checked.

[2] = tested on: invasive cell lines (5637, EJ); assay: Cell viability of bladder cancer cell lines treated with doxorubicin; conditions: invasive cell lines (5637, EJ) compared with non-muscle invasive cell lines (UC5, UC9); doxorubicin 0 to 50 μM for 12 hours or 24 hours; FIG. 9A
FOXM1 and CCNB1 genes = assay: Expression of FOXM1 and CCNB1 genes in bladder cancer cell lines treated with doxorubicin; conditions: invasive cell lines (5637, EJ); doxorubicin 0 to 50 μM for 12 hours or 24 hours; FIG. 9B
Method: as §1

COc1cccc2c1C(=O)c1c(O)c3c(c(O)c1C2=O)C[C@@](O)(C(=O)CO)C[C@@H]3O[C@H]1C[C@H](N)[C@H](O)[C@H](C)O1 [doxorubicin]
high: expression of the FANCB, FANCC, and FANCD2 genes relevant to Fanconi anemia pathways [1] | cell viability [2] | expression of FOXM1 and CCNB1 genes (FOXM1 and CCNB1 genes)
